The subject of one assay is Calu-6 cells. As to the kind of experiment: Drug-treated clonogenic assay on siRNA-transfected cells. Format: cell-based, Human. The note with it: βIII-tubulin siRNA silencing vs controls. As to the method: (§1) Cells were transfected for 24 h and approximately 600 cells (for Calu-6) or 150 cells (for H460) were seeded into each well of a 6-well plate and allowed to attach for 4-6 h. The cell lines used in this study were not subject to prior drug selection, and are likely to represent intrinsic drug resistance observed in lung carcinoma.
(§2) Cells were then treated with increasing concentrations of various anti-mitotic drugs. Following a 3-day incubation at 37° C., the drug-containing medium was removed and replaced with fresh complete medium. Medium was changed at 3-4 day intervals for 7 to 10 days until visible colonies formed. […] Surviving colonies were simultaneously fixed and stained with 0.5% crystal violet in methanol, rinsed with water to remove excess stain and air-dried overnight.
(§3) The colonies in each well were manually counted, and the results were presented as surviving fraction according to the formula: surviving fraction was calculated as follows: colony number/(number of cells seeded×plating efficiency), where plating efficiency is equivalent to the colony number divided by the number of cells seeded in the drug-free medium. Dose-response curves were plotted for each drug-cell line combination and inhibitory dose (ID50) values were extrapolated from this curve using GraphPad Prism program (GraphPad Software, version 4, San Diego, Calif.). ID50 was defined as the concentration of the drug required to reduce the number of colonies in drug-treated wells to 50% of that of the relevant untreated control wells. The ID50 values were the means of at least four independent experiments.
(§4) To quantitate any change in drug sensitivity, drug treated clonogenic assays were performed. Twenty-four hours after siRNA transfection, cells were harvested and plated into 6-well plates for 6 h, prior to the addition of various drugs as indicated in the figure legends. After 72 h incubation, the drug-containing media was removed and replaced with complete growth media. Medium was changed every 3 days for 7 to 10 days until visible colonies formed. Colonies were simultaneously fixed and stained with 0.5% crystal violet in methanol, and manually counted. Individual stained colonies in each well were counted and the surviving fraction was calculated as follows: colony number/(number of cells seeded×plating efficiency), where plating efficiency equals the colony number divided by the number of cells seeded in drug-free media.

The next assay deals with NSCLC H460 cells. As to the kind of experiment: Drug-treated clonogenic assay (surviving fraction, ID50) on siRNA/shRNA-transfected cells. The note with it: for IC50: Homo sapiens, read-out: ID50 (the source's name); for change in drug sensitivity (clonogenic survival): H460. In kind it is cell-based, Human. As to the method:
as §1, §2, §3, §4

A further assay has as its system CCRF-CEM Leukaemia cells. In kind it is cell-based. To be noted: for cross-resistance of the 2ME2-resistant cells: 2ME2-resistant sublines. From the text:
The tubulin-binding agent 2-methoxyestradiol (2ME2) binds to β-tubulin near the colchicine-binding site, inhibits microtubule polymerization, and induces mitotic arrest. CCRF-CEM Leukaemia cells that display increasing resistance to 2ME2 were selected, and four of the highly 2ME2 resistant leukaemia sublines were chosen for detailed analysis.

Where [1] appears, read: NCI-H460, Table 1A, control siRNA-transfected H460 cells.
The mark [2] stands for this setting: NCI-H460, Table 1A, mock-transfected H460 cells.
The mark [3] stands for this setting: NCI-H460, Table 1A, βII siRNA-transfected H460 cells.
Setting [4] is: NCI-H460, Table 1B, control siRNA-transfected H460 cells.
The mark [5] stands for this setting: NCI-H460, Table 1B, mock-transfected H460 cells.
Where [6] appears, read: NCI-H460, Table 1B, βIVb siRNA-transfected H460 cells.
Where [7] appears, read: βIII-tubulin siRNA silencing vs controls.
Setting [8] is: class II β-tubulin siRNA knockdown vs controls.

From patent publication US20100159030A1, “METHODS FOR DETECTING AND MODULATING THE SENSITIVITY OF TUMOR CELLS TO ANTI-MITOTIC AGENTS AND FOR MODULATING TURMORGENICITY” (NewSouth Innovations Pty Limited, priority 2007, published 2010) come the findings set out here.

Counter-ions that a name gives are not always drawn. Like-named read-outs stand apart in the source and are kept apart here.

`CCC1=C[C@@H]2CN(C1)Cc1c([nH]c3ccccc13)[C@@](C(=O)OC)(c1cc3c(cc1OC)N(C)[C@H]1[C@@](O)(C(=O)OC)[C@H](OC(C)=O)[C@]4(CC)C=CCN5CC[C@]31[C@@H]54)C2` [Vinorelbine, vinorelbine]: the “change in drug sensitivity (clonogenic survival)” value (shortened to “change in drug sensitivity”) with Calu-6 cells and in the assay on NSCLC H460 cells (setting [7]) was “enhanced sensitivity” in each case. Moreover, the IC50 in the assay on NSCLC H460 cells (setting [1]) was found to be 5.78 nM; in the assay with NSCLC H460 cells (setting [2]), 6.34 nM; with NSCLC H460 cells (setting [3]), 4.04 nM; in the assay with NSCLC H460 cells (setting [4]), 6.52 nM; with NSCLC H460 cells (setting [5]), 6.95 nM; in the assay with NSCLC H460 cells (setting [6]), 5.43 nM.

As for `CC[C@]12C=CCN3CC[C@@]4(c5cc([C@@]6(C(=O)OC)C[C@@H]7C[C@@H](C(C)(F)F)CN(Cc8c6[nH]c6ccccc86)C7)c(OC)cc5N(C)[C@H]4[C@@](O)(C(=O)OC)[C@@H]1OC(C)=O)[C@@H]32` [Vinflunine, vinflunine], the IC50 with NSCLC H460 cells (setting [1]) turned out to be 29.9 nM; in the assay with NSCLC H460 cells (setting [2]), 31 nM; with NSCLC H460 cells (setting [3]), 19 nM; in the assay with NSCLC H460 cells (setting [4]) it was 30.5 nM; in the assay on NSCLC H460 cells (setting [5]), 31.7 nM; with NSCLC H460 cells (setting [6]), 19.2 nM.

With `COc1cc([C@@H]2c3cc4c(cc3[C@@H](O[C@@H]3O[C@@H]5CO[C@@H](C)O[C@H]5[C@H](O)[C@H]3O)[C@H]3COC(=O)[C@H]23)OCO4)cc(OC)c1O` [VP-16, Etoposide], the “change in drug sensitivity” value in the assay with NSCLC H460 cells (setting [7]) is “increased sensitivity”.

For `C/C(=C\c1csc(C)n1)[C@@H]1C[C@@H]2O[C@]2(C)CCC[C@H](C)[C@H](O)[C@@H](C)C(=O)C(C)(C)[C@@H](O)CC(=O)O1` [epothilone B], the “change in drug sensitivity” value in the assay with Calu-6 cells is “increased the sensitivity”; in the assay on NSCLC H460 cells (setting [8]), “no significant change in drug sensitivity”; in the assay on NSCLC H460 cells (class IVb β-tubulin siRNA knockdown vs controls), “significantly more resistant”; in the assay with NSCLC H460 cells (setting [7]) it was “increased the sensitivity”. Besides, the “cross-resistance of the 2ME2-resistant cells” value with CCRF-CEM Leukaemia cells is on record as “hypersensitive”.

`COc1cc2c(cc1O)CC[C@@H]1[C@@H]2CC[C@]2(C)[C@@H](O)CC[C@@H]12` [2ME2, 2-methoxyestradiol]: the “change in drug sensitivity” value with NSCLC H460 cells (setting [8]) is recorded as “significantly increased sensitivity”.

For the compound `COc1cc2c(c(OC)c1OC)-c1ccc(OC)c(=O)cc1[C@@H](NC(C)=O)CC2` [colchicine], the “change in drug sensitivity” value in the assay with NSCLC H460 cells (setting [8]) is “significantly increased sensitivity”. The “cross-resistance of the 2ME2-resistant cells” value with CCRF-CEM Leukaemia cells was “not cross resistant”. Also, in the assay with CCRF-CEM Leukaemia cells (lowest resistant subline CEM/2ME2-3.6R only), the cross-resistance entry is reported as “cross-resistance”.

Take `COc1cccc2c1C(=O)c1c(O)c3c(c(O)c1C2=O)C[C@@](O)(C(=O)CO)C[C@@H]3O[C@H]1C[C@H](N)[C@H](O)[C@H](C)O1` [doxorubicin, doxorubicin hydrochloride]: in the assay on NSCLC H460 cells (setting [7]), the “change in drug sensitivity” value is reported as “increased sensitivity”.

In the case of `CC[C@]1(O)C[C@@H]2CN(CCc3c([nH]c4ccccc34)[C@@](C(=O)OC)(c3cc4c(cc3OC)N(C)[C@H]3[C@@](O)(C(=O)OC)[C@H](OC(C)=O)[C@]5(CC)C=CCN6CC[C@]43[C@@H]65)C2)C1` [Vinblastine, vinblastine], the IC50 in the assay with NSCLC H460 cells (setting [1]) is 0.749 nM; in the assay with NSCLC H460 cells (setting [2]), 0.658 nM; with NSCLC H460 cells (setting [3]), 0.437 nM; in the assay with NSCLC H460 cells (setting [4]), 0.615 nM; with NSCLC H460 cells (setting [5]), 0.674 nM; in the assay on NSCLC H460 cells (setting [6]), 0.173 nM.
